Assay results reported in paper PMC12480552 (Scientific Reports, 2025).
Several values for one entry are separate records, joined by “and”; a condition that tells them apart may be missing. Equal entries are not always repeated. Where two headings read alike, the source gives them in different places.

What was measured:
[1] = parameters: method as in earlier work; conditions: humans, multiple-dose oral administration; cited from earlier work
[2] = cited from earlier work
[3] = cited from earlier work; remark: listed apart in the source
[4] = oral dosing in NHPs; ref data not reported; cited from earlier work
[5] = 43 patients, phase 0 cohort, 200 or 300 mg once daily 4 days, cited from earlier work
[6] = MALDI MSI of brain sections, biodistribution in healthy nonhuman primates; conditions: for concentration at 4 h: male, rhesus monkey, oral, 6 mg/kg
Method: Animals were randomized using the GSK Randomization App 2.0, which is an internal software tool that uses the ‘sample’ function in R to randomly shuffle animal IDs, then assigns them to treatment groups to ensure unbiased allocation.
Before each dose, animals were lightly sedated with an intramuscular injection of ketamine (5–10 mg/kg), and a blood sample was drawn. […] NHPs were euthanized by administering an overdose of injected sodium pentobarbital IV (150–200 mg/kg) and confirmed by thoracotomy and exsanguination. Terminal plasma, cerebrospinal fluid, and brain tissue were collected at necropsy. […] The brain was cut into six roughly 1-cm thick coronal segments before snap-freezing by floating on liquid nitrogen. The right hemispheres of the four interior coronal brain segments were cryosectioned and analyzed by matrix-assisted laser desorption/ionization mass spectrometry imaging (MALDI MSI) to quantitatively assess the tissue distribution of the dosed compounds[40]–[43]. After MALDI MSI analysis, tissue sections were stained with hematoxylin and eosin (H&E) for correlation of ion images with underlying tissue histology.
For both the nonhuman primate (NHP) and mouse metastases model studies, brain tissue sections of 6-µm thickness were prepared on a Leica CM1950 cryostat (Leica Biosystems, Danvers, MA). For the NHP study, tissue sections were collected from four of the coronal brain segments from each animal. From each coronal segment, three tissue sections were collected for MALDI MSI, one section for hematoxylin and eosin (H&E) staining, and roughly 30 sections were collected into a pre-weighed vial for homogenization and liquid chromatography–tandem mass spectrometry (LC-MS/MS) bioanalysis. The three sections for MALDI MSI were thaw-mounted onto double-width indium tin oxide–coated slides (BigSlides; Bruker Daltonics, Billerica, MA) that had been pretreated with a poly-L-lysine solution to improve tissue adherence. The section for H&E staining was thaw-mounted onto a standard double-width glass microscope slide.
A gelatin cast of the mimetic model was prepared by pipetting a warmed (50 °C) 15% gelatin solution into a tissue microarray mold (Arraymold kit C, 4 mm, 15 cores; Arraymold, Ogden, UT). The gelatin cast was then frozen overnight at (− 20 °C). Bulk homogenate of control rat brain tissue was prepared using an Omni Bead Ruptor Elite bead mill homogenizer (Omni International, Kennesaw, GA). […] The gelatin cast was warmed to room temperature, and the spiked homogenates were pipetted into each of the individual wells. The cast and homogenate were then frozen by floating on liquid nitrogen and stored at − 80 °C. Cryosections (6-µm thickness) of the mimetic tissue model were then collected on the same slide as the sample tissue to be quantified.
Slides were coated with a TM Sprayer (HTX Technologies, Chapel Hill, NC) using the following parameters: 0.1-mL/min flowrate, 70 °C, 3-mm track spacing with CC pattern, and 8 passes.
MALDI MSI was performed on either a Bruker ScimaX (7T) or a Bruker SolariX (7T) FT-ICR mass spectrometer. […] Both narrowband and CASI windows were centered between parent and internal standard m/z. The small laser focus was used with 200 laser shots per position, and the laser power was adjusted in accordance with a quality control sample acquired just before initiating the imaging sequence.
After MALDI MSI acquisition, slides were immersed in 100% ethanol for 5 min to remove the MALDI matrix. Slides were then stained with H&E and digitally scanned. Ion images were loaded into flexImaging (Bruker Daltonics), the post–MALDI H&E image was coregistered, and key regions of interest (ROIs) for the tissue and mimetic model were drawn. […] This stipulation was implemented to avoid internal standard normalization of noise, which can introduce artifactual distributions.

Compound: O=C(c1cc(Cc2n[nH]c(=O)c3ccccc23)ccc1F)N1CCN(C(=O)C2CC2)CC1 [Olaparib]
- Tmax [1]: 1 to 3 h

Compound: NC(=O)c1cccc2cn(-c3ccc([C@@H]4CCCNC4)cc3)nc12 [Niraparib]
- cell membrane permeability [2]: high
- Kp, brain ([3]; P-gp knockout mice): 1.20
- Kp, brain ([3]; P-gp/BCRP knockout mice): 1.46
- Kp, brain ([3]; wild-type mice): 0.20
- plasma time to peak drug concentration (Tmax) [4]: ≈ 4 h
- Kp, tumor ([5]; gadolinium-enhanced tissue): 7.5
- Kp, tumor ([5]; nonenhanced tissue): 4.2
- MALDI MSI Brain sections, mean (SD) ([6]; healthy rhesus macaques, individual animals, oral once daily 5 days, niraparib 6 mg/kg (4 h after last dose), olaparib 10 mg/kg (2–2.5 h), total concentration, LOD 20 ng/g niraparib, 70 ng/g olaparib): 283 (69) ng/g and 684 (189) ng/g
- concentration at 4 h ([6]; brain (coronal Region 1 sections), MALDI MSI Mean Conc. by brain region, NHP-1, Region 1, 3 sections, Fig. 1B): 268 ng/g
- concentration at 4 h ([6]; brain (coronal Region 1 sections), MALDI MSI Mean Conc. by brain region, NHP-2, Region 1, 3 sections, Fig. 1B): 524 ng/g
- concentration at 4 h ([6]; brain (coronal Region 2 sections), MALDI MSI Mean Conc. by brain region, NHP-1, Region 2, 3 sections, Fig. 1B): 287 ng/g
- concentration at 4 h ([6]; brain (coronal Region 2 sections), MALDI MSI Mean Conc. by brain region, NHP-2, Region 2, 3 sections, Fig. 1B): 610 ng/g
- concentration at 4 h ([6]; brain (coronal Region 3 sections), MALDI MSI Mean Conc. by brain region, NHP-1, Region 3, 3 sections, Fig. 1B): 217 ng/g
- concentration at 4 h ([6]; brain (coronal Region 3 sections), MALDI MSI Mean Conc. by brain region, NHP-2, Region 3, 3 sections, Fig. 1B): 822 ng/g
- concentration at 4 h ([6]; brain (coronal Region 4 sections), MALDI MSI Mean Conc. by brain region, NHP-1, Region 4, 3 sections, Fig. 1B): 362 ng/g
- concentration at 4 h ([6]; brain (coronal Region 4 sections), MALDI MSI Mean Conc. by brain region, NHP-2, Region 4, 3 sections, Fig. 1B): 781 ng/g
- concentration at 4 h ([6]; brain blood vessel, Niraparib Mean Conc. in histological ROI, NHP-1, Blood Vessel, Fig. 1D): 779 ng/g
- concentration at 4 h ([6]; brain blood vessel, Niraparib Mean Conc. in histological ROI, NHP-2, Blood Vessel, Fig. 1D): 1210 ng/g
- concentration at 4 h ([6]; brain gray matter, Niraparib Mean Conc. in histological ROI, NHP-1, Gray Matter, Fig. 1D): 292 ng/g
- concentration at 4 h ([6]; brain gray matter, Niraparib Mean Conc. in histological ROI, NHP-2, Gray Matter, Fig. 1D): 743 ng/g
- concentration at 4 h ([6]; brain parenchyma, mean unbound niraparib concentration in the brain parenchyma, healthy rhesus macaques, estimated from MALDI MSI): ~15 ng/g
- concentration at 4 h ([6]; brain ventricle, Niraparib Mean Conc. in histological ROI, NHP-1, Ventricle, Fig. 1D): 3360 ng/g
- concentration at 4 h ([6]; brain ventricle, Niraparib Mean Conc. in histological ROI, NHP-2, Ventricle, Fig. 1D): 4830 ng/g
- concentration at 4 h ([6]; brain white matter, Niraparib Mean Conc. in histological ROI, NHP-1, White Matter, Fig. 1D): 177 ng/g
- concentration at 4 h ([6]; brain white matter, Niraparib Mean Conc. in histological ROI, NHP-2, White Matter, Fig. 1D): 350 ng/g
